Data on 65 compounds can be found in patent US20230130766A1 (SALK INSTITUTE FOR BIOLOGICAL STUDIES, priority 2020, published 2023).

This test deals with T1, ULK1 (Homo sapiens, UniProt O75385).
T1 sequence (O75385 1-1050): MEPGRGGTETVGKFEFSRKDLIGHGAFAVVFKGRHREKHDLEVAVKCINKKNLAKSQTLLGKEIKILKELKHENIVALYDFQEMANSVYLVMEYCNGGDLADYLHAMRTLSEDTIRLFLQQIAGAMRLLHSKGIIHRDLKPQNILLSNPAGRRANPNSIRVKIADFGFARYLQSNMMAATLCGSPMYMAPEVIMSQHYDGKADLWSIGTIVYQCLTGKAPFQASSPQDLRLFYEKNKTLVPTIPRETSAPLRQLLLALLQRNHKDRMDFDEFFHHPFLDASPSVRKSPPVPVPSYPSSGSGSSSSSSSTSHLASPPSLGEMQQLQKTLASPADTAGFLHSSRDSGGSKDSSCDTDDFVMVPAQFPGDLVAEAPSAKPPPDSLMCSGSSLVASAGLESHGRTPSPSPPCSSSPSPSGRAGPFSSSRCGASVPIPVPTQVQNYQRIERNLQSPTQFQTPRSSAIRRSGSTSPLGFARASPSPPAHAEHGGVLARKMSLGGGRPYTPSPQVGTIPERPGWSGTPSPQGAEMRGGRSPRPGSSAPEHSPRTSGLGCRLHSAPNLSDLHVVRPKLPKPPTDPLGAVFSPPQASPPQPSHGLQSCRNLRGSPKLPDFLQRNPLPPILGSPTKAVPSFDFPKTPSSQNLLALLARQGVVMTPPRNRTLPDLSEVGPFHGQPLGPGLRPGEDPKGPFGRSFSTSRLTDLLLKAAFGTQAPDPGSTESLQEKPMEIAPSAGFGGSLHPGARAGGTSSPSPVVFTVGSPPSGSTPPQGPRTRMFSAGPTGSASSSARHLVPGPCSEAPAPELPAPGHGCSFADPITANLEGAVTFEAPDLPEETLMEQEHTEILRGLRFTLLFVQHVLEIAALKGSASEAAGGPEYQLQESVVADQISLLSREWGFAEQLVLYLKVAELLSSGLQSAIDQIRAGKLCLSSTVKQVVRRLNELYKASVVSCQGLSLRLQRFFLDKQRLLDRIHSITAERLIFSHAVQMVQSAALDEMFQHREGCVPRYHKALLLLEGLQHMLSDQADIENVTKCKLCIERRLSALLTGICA
Kind of test: ULK1 inhibition assay. It counts as biochemical. Particulars: * = tested as a mixture of regioisomers.

A value given as a limit tells only on which side of the number the result lay.

The IC50 is the concentration needed to halve the response being measured. Turning to `COc1cc(N2CCOCC2)ccc1Nc1ncc(C(F)(F)F)c(NCc2cccc(S(C)(=O)=O)c2)n1` [Compound 52], the 50% inhibitory concentration (IC50) was above 2 µM. Then `COc1cc(Nc2ncc(Br)c(Oc3ccccc3CNC(C)=O)n2)cc(OC)c1OC` [Compound 328], with above 2 µM.

As to `CNC(=O)c1ccccc1Nc1nc(Nc2cc(OC)c(OC)c(OC)c2)ncc1C(F)(F)F` [Compound 36], the half-maximal inhibitory concentration (IC50) is above 2 µM. The result for `COc1cc(N2CCOCC2)ccc1Nc1nc(Nc2ccc3c(c2)CCC(=O)N3)ncc1C(F)(F)F` [Compound 123a] reads below 0.2 µM; that for `COc1ccc(Nc2nc(Nc3cc(OC)c(OC)c(OC)c3)ncc2Br)cn1` [Compound 25], below 0.2 µM; that for `O=C1CCc2cc(Nc3ncc(C(F)(F)F)c(OC4Cc5ccccc5C4)n3)ccc2N1` [Compound 180a], below 0.2 µM. `O=C1CCc2cc(Nc3ncc(C(F)(F)F)c(-c4ccccc4)n3)ccc2N1` [Compound 72]: the IC50 was above 2 µM. The result for `CNS(=O)(=O)c1ccccc1Nc1nc(Nc2cc(OC)c(OC)c(OC)c2)ncc1Br` [Compound 237] reads 0.2 to 2 µM; that for `Oc1ncc(C(F)(F)F)c(Nc2ccccc2N2CCOCC2)n1` [Compound 118c], above 2 µM; that for `COc1cc(Nc2ncc(Br)c(Oc3cccc4cc[nH]c34)n2)cc(OC)c1OC` [Compound 329a], above 2 µM. With `CNC(=O)c1ccc(OC)cc1Oc1ncc(Br)c(Nc2cc(OC)c(OC)c(OC)c2)n1` [Compound 318b], the IC50 is above 2 µM. Then `OCc1ccccc1Nc1nc(Nc2cc(F)c(F)c(F)c2)ncc1Br` [Compound 353], with above 2 µM. Then `CNC(=O)c1ccccc1Nc1nc(Nc2ccc3c(c2)CC(=O)N3)ncc1Cl` [Compound 21], with below 0.2 µM. Then `O=C1CCc2cc(Nc3ncc(C(F)(F)F)c(N4CC(F)(F)C4)n3)ccc2N1` [Compound 215], with below 0.2 µM; and `COc1cc(Nc2ncc(C(F)(F)F)c(NCc3cccc(S(C)(=O)=O)c3)n2)cc(OC)c1OC` [Compound 31], with below 0.2 µM. As to `COc1cc(Nc2ncc(Br)c(Oc3ccccc3C(=O)NC3CC3)n2)cc(OC)c1OC` [Compound 270], the IC50 was in the range of 0.2 to 2 µM.

On to `O=C1CCc2cc(Nc3ncc(C(F)(F)F)c(/C=C/c4ccccc4)n3)ccc2N1` [Compound 69], for which the IC50 was below 0.2 µM.

Regarding `FC(F)(F)c1cnc(NC2CC2)nc1NC1CC1` [Compound 169], the IC50 was above 2 µM.

Regarding `CNC(=O)c1ccccc1Oc1nc(Nc2ccccc2OC)ncc1C(F)(F)F` [Compound 103], the concentration for half-maximal inhibition (IC50) is above 2 µM. Then `O=C1CCc2cc(Nc3ncc(C(F)(F)F)c(NC4CC4)n3)ccc2N1` [Compound 131a], with below 0.2 µM; and `COc1ccc(Nc2nc(Nc3cc(OC)c(OC)c(OC)c3)ncc2C(F)(F)F)cn1` [Compound 37], with below 0.2 µM; and `CNC(=O)c1ccccc1Nc1ccnc(Nc2cc(OC)c(OC)c(OC)c2)n1` [Compound 60], with below 0.2 µM.

Consider `CNC(=O)c1ccccc1Oc1nc(Nc2ccc(OC)cc2)ncc1C(F)(F)F` [Compound 105a], for which the IC50 is above 2 µM. As to `CNC(=O)c1ccccc1Nc1nc(Nc2ccc3c(c2)CCC(=O)N3)ncc1C(F)(F)F` [Compound 76], the IC50 was below 0.2 µM. The result for `COc1cc(Nc2ncc(C(F)(F)F)c(Oc3ccccc3N)n2)cc(OC)c1OC` [Compound 346] reads below 0.2 µM.

`O=C1CCc2cc(Nc3ncc(C(F)(F)F)c(Nc4ccccc4)n3)ccc2N1` [157*]: the IC50 is below 0.2 µM. `O=C1CCc2cc(Nc3nc(NC4Cc5ccccc5C4)ncc3C(F)(F)F)ccc2N1` [Compound 130b]: the IC50 is above 2 µM.

As for `O=C1CCc2cc(Nc3nc(Nc4ccc5c(c4)OC(F)(F)O5)ncc3C(F)(F)F)ccc2N1` [Compound 178b], the 50% inhibitory concentration (IC50) was below 0.2 µM. With `COc1ccc(Nc2nc(Nc3ccc4[nH]ccc4c3)ncc2Br)cn1` [Compound 30], the concentration for half-maximal inhibition (IC50) is below 0.2 µM.

On to `COc1cc(Nc2ncc(Br)c(Nc3ccccc3O)n2)cc(OC)c1OC` [Compound 317], for which the half-maximal inhibitory concentration (IC50) is below 0.2 µM. `CNC(=O)c1ccccc1Nc1nc(Nc2ccc3c(c2)OCO3)ncc1Cl` [Compound 49]: the IC50 was below 0.2 µM.

For the compound `CC(Cl)CNc1nc(Nc2ccc3c(c2)CCC(=O)N3)ncc1C(F)(F)F` (centres unmarked) [Compound 183b], the concentration for half-maximal inhibition (IC50) was below 0.2 µM.

`FC(F)(F)c1cnc(NC2Cc3ccccc3C2)nc1Nc1ccc2c(c1)OCO2` [Compound 163a]: the IC50 was above 2 µM. As for `CNC(=O)c1ccccc1Oc1nc(Nc2cc(Br)ccc2C)ncc1Br` [Compound 112], the IC50 is above 2 µM. Consider `FC(F)(F)c1cnc(Nc2ccnnc2)nc1NC1CC1` [Compound 221a], for which the IC50 was below 0.2 µM. Then `CNC(=O)c1ccccc1Oc1nc(Nc2cc(OC)c(OC)c(OC)c2)ncc1Cl` [Compound 234a], with above 2 µM.

`O=C1CCc2cc(Nc3ncc(C(F)(F)F)c(OCCNC(=O)OCc4ccccc4)n3)ccc2N1` [Compound 261]: the half-maximal inhibitory concentration (IC50) is above 2 µM. Then `O=C1CCc2cc(Nc3ncc(Cl)c(Nc4ccc5c(c4)CCC(=O)N5)n3)ccc2N1` [Compound 134], with below 0.2 µM. On to `Nc1ccccc1Oc1nc(Nc2ccc3c(c2)OCO3)ncc1Br` [Compound 321b], for which the IC50 was below 0.2 µM.

As to `COc1cccc(Nc2nc(Nc3ccc4c(c3)CCC(=O)N4)ncc2Cl)c1` [Compound 143a], the IC50 is below 0.2 µM. On to `c1cc(NC2CC2)nc(Nc2cnc3[nH]ccc3c2)n1` [Compound 204], for which the IC50 was above 2 µM.

Take `FC(F)(F)c1cnc(Nc2cccc3ncccc23)nc1NC1CC1` [Compound 278]: the IC50 was above 2 µM. With `COc1cnc(Nc2ccc3c(c2)CCC(=O)N3)nc1Nc1ccc2c(c1)CCC(=O)N2` [Compound 135], the IC50 was above 2 µM. Then `COC(=O)[C@@H]1CCCN1c1nc(Nc2ccc3c(c2)CCC(=O)N3)ncc1C(F)(F)F` [Compound 227], with 0.2 to 2 µM. Turning to `CNC(=O)c1ccccc1Nc1nc(Nc2ccc3c(c2)CCC(=O)N3)ncc1Cl` [Compound 19], the IC50 was below 0.2 µM.

Take `Fc1c(Nc2ncc(C(F)(F)F)c(Nc3ccc4c(c3)OCO4)n2)cccc1C(F)(F)F` [Compound 141a]: the 50% inhibitory concentration (IC50) was above 2 µM.

As to `COc1cccc(Nc2nc(Nc3ccc4c(c3)CCC(=O)N4)ncc2C(F)(F)F)c1` [Compound 119], the half-inhibitory concentration (IC50) was below 0.2 µM. As to `O=C1CCc2cc(Nc3ncc(C(F)(F)F)c(NC4COC4)n3)ccc2N1` [Compound 193], the concentration for half-maximal inhibition (IC50) was above 2 µM. As to `COc1cc(Nc2ncc(Br)c(Oc3ccccc3[S+](C)[O-])n2)cc(OC)c1OC` (centres unmarked) [Compound 356], the 50% inhibitory concentration (IC50) is above 2 µM. Consider `O=C1CCc2cc(Nc3ncc(C(F)(F)F)c(Nc4ccccc4N4CCOCC4)n3)ccc2N1` [Compound 118a], for which the half-inhibitory concentration (IC50) was below 0.2 µM. The result for `O=C1CCc2cc(Nc3ncc(C(F)(F)F)c(O)n3)ccc2N1` [Compound 231b] reads above 2 µM; that for `O=C1CCc2cc(Nc3ncc(C(F)(F)F)c(NC4CCC4)n3)ccc2N1` [Compound 150a], below 0.2 µM. `COc1cc(Nc2nc(Oc3cccc4cc[nH]c34)ncc2Br)cc(OC)c1OC` [Compound 329b]: the IC50 was above 2 µM.

Turning to `COc1cccc(Nc2ncc(Cl)c(Nc3cccc(OC)c3)n2)c1` [Compound 143b], the half-maximal inhibitory concentration (IC50) was below 0.2 µM. The result for `COc1cc(Nc2ncc(Br)c(Oc3ccccc3C(F)(F)F)n2)cc(OC)c1OC` [Compound 299] reads below 0.2 µM; that for `COc1cc(Nc2ncc(Br)c(Oc3ccccc3)n2)cc(OC)c1OC` [Compound 266], below 0.2 µM; that for `COc1cc(Nc2ncc(Br)c(Oc3cccc4c3CCCC4)n2)cc(OC)c1OC` [Compound 330a], above 2 µM.

With `COCCNc1nc(Nc2ccc3c(c2)CCC(=O)N3)ncc1C(F)(F)F` [Compound 151a], the IC50 was below 0.2 µM. As for `FC(F)(F)c1cnc(Nc2cnc3[nH]ccc3c2)nc1NC1CCC1` [Compound 161a], the half-inhibitory concentration (IC50) is below 0.2 µM. The result for `CNC(=O)c1ccccc1Nc1nc(Nc2cc(N3CCOCC3)cc(N3CCOCC3)c2)ncc1C(F)(F)F` [Compound 90] reads below 0.2 µM. The result for `CN(c1ccccc1)c1nc(Nc2ccc3c(c2)CCC(=O)N3)ncc1C(F)(F)F` [Compound 184a] reads 0.2 to 2 µM. The result for `CS(=O)(=O)c1cccc(CNc2nc(Nc3ccc4c(c3)CCC(=O)N4)ncc2F)c1` [Compound 56] reads above 2 µM; that for `COc1cc(Nc2nc(Oc3cccc4c3CCCC4)ncc2Br)cc(OC)c1OC` [Compound 330b], above 2 µM.

With `COc1cc(Nc2ncc(Br)c(-n3nnc4ccccc43)n2)cc(OC)c1OC` [Compound 331a], the IC50 was above 2 µM. Then `COc1cc(Nc2ncc(Br)c(Oc3cccc4cccnc34)n2)cc(OC)c1OC` [Compound 324a], with above 2 µM.
